Results taken from patent US20120141478A1, “COMPOSITIONS AND METHODS FOR DELIVERING ANTI-ACTIVATED RAS ANTIBODIES” (Cellectis S.A., priority 2006, published 2012).

Assays:
[1] = system: K-RASmt HCT 116 cells; assay: In vitro anti-proliferative activity (WST-1) on HCT 116; type: cell-based, human
Protocol: Cells were incubated for 120 hours with the antibody alone (Y13259; 700 nM), or the DPV3-Y13259 conjugate (700 nM), with DPV3-maleimide as internal controls (DPV3-mal; 700 nM). Non-relevant IgG1 anti-peroxydase immunoglobulins (IgG PO; 700 nM) and an inhibitor of RAS farnesyltransferase (FTI-276; 100 nM) were used as internal controls. Results are expressed as mean±SEM of three independent experiments performed in duplicate. *p<0.05 vs not treated cells.
HCT 116 and HT-29 were seeded at 8×10^3 cells/well (96-well plates) in medium+0.5% and 10% FCS (Foetal Calf Serum) respectively. The day after, cells were treated with increasing concentrations of tested compounds in complete medium (+10% FCS) and cells were counted overtime at 24 h, 48 h, 72 h and 120 h using the WST-1 method, described hereafter. The medium was removed and 100 μl of fresh medium without FCS supplemented with 10% WST-1 solution was added on cells for 2 h at 37° C., 5% CO2. Measurement of A450 nm−A690 nm (blank=0 cells) was performed to determine cell number.
CPP-Y13259 conjugates were tested in a cell proliferation assay on mutated RAS-expressing and wild-type RAS expressing cell lines (HCT 116 and HT-29, respectively). FTI-276, a farnesyltransferase inhibitor that inhibits RAS-mediated cell proliferation constituted a positive control. […]

[2] = system: human lung carcinoma expressing K-RAS; details: cited from earlier work
[3] = biological target: mutated Ki-RAS of HCT 116 cells (human) (UniProt P01116); assay: cell-based or functional assay

Compound	duration of the effect on HCT 116 cell proliferation ([1]; 120 hours = maximum time tested)	effect on HCT 116 cell proliferation ([1]; FTI-276 100 nM, positive control)	effect on tumor growth in nude mice [2]	efficient concentration, HCT 116 cell proliferation (WST-1) [3] [nM]
CSCC[C@H](NC(=O)c1ccc(NC[C@@H](N)CS)cc1-c1ccccc1)C(=O)O [FTI-276]	at least 120 hours	inhibited HCT 116 cell proliferation	block the growth of a human lung carcinoma expressing K-RAS in nude mice	–
DPV3-Y13259 conjugate (antibody)	–	–	–	85 to 700
